Experimental data reported in ChEMBL document CHEMBL1201862, “PubChem BioAssay data set” (2004).
Calls of active or inactive are those of the source.

What was measured:
[1] = growth suppression of beta-catenin-knockout colon cells, dose response, cell-based, HCT116, human colon tumor (AID 1045); type: functional;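 note: HCT116 colon tumor cells with beta catenin knocked out; cells exposed to compound for 60 hours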
CHO = assay: cytotoxicity in TLR9-MyD88 CHO cells, dose response, cytotoxicity control for TLR9-MyD88 binding inhibitor project, cell-based, luminescence (AID 588339); type: functional, hamster; conditions: Cricetulus griseus;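 note: CHO cells stably coexpressing TLR9 and MyD88 fusions from primary screen; compound exposure lasted 48 hours before viability readout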
[2] = growth suppression of PTEN-null colon cells, dose response, cell-based, HCT116 PTEN knockout (AID 1047); type: functional;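 note: HCT116 colon tumor cells with PTEN knocked out; cells exposed to compound for 60 hours before readout; potency for loss of cell viability measured by luminescence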
Beta Lactamase = Beta Lactamase (Pseudomonas aeruginosa, UniProt Q932Y6); assay: beta-lactamase reporter inhibitor potency, dose response, artefact control for TLR9-MyD88 binding inhibitor project, BLA reporter cells, FRET fluorescence (AID 588341); type: cell-based;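 note: cell based assay in CHO-K1 cells stably expressing beta-lactamase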
Beta Lactamase, sequence (Q932Y6 whole entry): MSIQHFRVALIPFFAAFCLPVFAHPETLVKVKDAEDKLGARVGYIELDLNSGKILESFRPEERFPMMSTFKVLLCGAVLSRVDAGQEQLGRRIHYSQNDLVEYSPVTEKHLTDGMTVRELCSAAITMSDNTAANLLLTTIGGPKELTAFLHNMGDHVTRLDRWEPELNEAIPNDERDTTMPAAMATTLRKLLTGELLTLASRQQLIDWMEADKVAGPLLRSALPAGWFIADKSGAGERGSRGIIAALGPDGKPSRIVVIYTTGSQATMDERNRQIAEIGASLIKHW

DNA topoisomerase = DNA topoisomerase (Yersinia pestis, UniProt A0A2S9PM60); assay: Y. pestis Topo-I inhibitors, cleavage product readout, dose response, biochemical, cherry-pick (AID 588525)
DNA topoisomerase, sequence (A0A2S9PM60 whole entry): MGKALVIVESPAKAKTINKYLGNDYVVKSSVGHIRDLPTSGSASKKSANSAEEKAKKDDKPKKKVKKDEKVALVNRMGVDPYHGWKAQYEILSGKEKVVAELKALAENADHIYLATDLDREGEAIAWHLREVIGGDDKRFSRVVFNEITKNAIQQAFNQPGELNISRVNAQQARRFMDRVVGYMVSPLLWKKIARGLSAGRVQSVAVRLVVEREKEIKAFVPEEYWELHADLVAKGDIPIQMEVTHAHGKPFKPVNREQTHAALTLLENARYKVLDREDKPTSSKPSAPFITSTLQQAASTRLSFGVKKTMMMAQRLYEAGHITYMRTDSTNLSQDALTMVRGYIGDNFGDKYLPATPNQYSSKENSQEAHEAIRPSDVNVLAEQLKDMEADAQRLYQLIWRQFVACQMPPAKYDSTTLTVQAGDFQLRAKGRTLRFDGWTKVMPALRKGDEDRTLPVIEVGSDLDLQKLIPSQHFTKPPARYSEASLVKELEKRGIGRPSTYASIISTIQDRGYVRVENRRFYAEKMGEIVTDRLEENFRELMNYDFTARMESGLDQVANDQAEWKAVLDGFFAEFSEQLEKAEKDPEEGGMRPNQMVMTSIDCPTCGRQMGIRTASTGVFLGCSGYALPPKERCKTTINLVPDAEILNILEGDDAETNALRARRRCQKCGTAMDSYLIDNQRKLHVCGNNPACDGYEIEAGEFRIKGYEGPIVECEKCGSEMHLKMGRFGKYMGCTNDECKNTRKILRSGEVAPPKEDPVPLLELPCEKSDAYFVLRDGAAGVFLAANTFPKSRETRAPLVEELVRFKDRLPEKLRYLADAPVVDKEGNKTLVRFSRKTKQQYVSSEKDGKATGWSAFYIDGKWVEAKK

With `O=C(/C=C/c1cn(CC(O)CN2CCCCCC2)c2ccccc12)c1cccs1` (stereo unspecified) the EC50 [1] was 11.9 µM (active), the IC50 (CHO) was 20.1 µM (inactive) and the EC50 [2] was 14.1 µM (active). The IC50 (Beta Lactamase) was 8.35 µM (active).

In the case of `CC(C)CN(C(=O)COC(=O)c1c2c(nc3ccccc13)CCC2)c1c(N)n(Cc2ccccc2)c(=O)[nH]c1=O`, the AC50 (DNA topoisomerase) was > 38 µM (inactive).

With `CC(C)C(=O)N1CCN(c2nc(-c3ccc(Cl)cc3)cs2)CC1` the AC50 (DNA topoisomerase) was 1.72 µM (active).
